These results are taken from US20240368149A1, “ANALOGS OF XANOMELINE” (Terran Biosciences Inc., priority 2023, published 2024).

Like-named read-outs stand apart in the source and are kept apart here.

One may read the Tmax as the time at which the peak concentration occurs. The term Cmax denotes the peak of the concentration-time curve.

Series [1] in a line: Rat PK: plasma prodrug concentration after intravenous (IV) dosing of xanomeline prodrugs at 1 mg/kg (Example A-6). The following applies: male, Sprague-Dawley, IV 1 mg/kg of xanomeline; for concentration at 0.5 h: 0.500 h; for concentration at 0.75 h: 0.750 h. The series is classed as in vivo, male Sprague-Dawley (SD) rats. As to the method: (§1) • Step 1: A stock solution of the compound(s) were prepared to 1 mg/ml in DMSO • Step 2: A 10,000 ng/mL matched matrix standard was prepared using the stock solution(s) • Step 3: Calibration standards in matched matrix were prepared between 10,000 ng/ml and 0.5 ng/mL using serial dilution • Step 4: QC samples were prepared in matched matrix at 4000, 800, 400, 40 and 10 ng/mL
(§2) • Step 1: Add 10 μL of the standards, QCs and samples to a 96-well plate (extraction plate) • Step 2: To each standard, QC and test sample, add 100 μL of ISZ • Step 3: Sonicate for 2 min then mix the plate for approximately 2 min at 1200 rpm on a plate shaker • Step 4: Centrifuge the plate at 3000 rpm for 5 min • Step 5: Add 50 μL 0.1% formic acid in UP H2O to wells of a new 96-well plate • Step 6: Transfer 50 μL extracted sample to relevant position in second 96-well plate • Step 7: Mix at 1200 rpm for 2 min • Step 8: Heat seal and analyse on the LC-MS/MS system • Instrument: Xevo TQ-D with CTC Autosampler
(§3) Samples were sent for method optimization and measurement of prodrug via unique calibration lines and following acceptance QC's. Dose formulation concentrations were also measured, and PK parameters were determined (Cmax (ng/mL), Tmax (hr), Cl (ml/min/kg), Vdss (L/kg), t½ (hr), AUC0-t (ng/mL*hr), AUC0-inf (ng/mL*hr), MRT (hr), Bioavailability (% F) where warranted) using WinNon Lin software. Data (including bioanalytical results and assay performance) were reported in a tabulated format and QC'd.
Compound was dissolved in DMSO:HPCD (20% w/v in water) [10:90] 0.5 mg API/mL to provide doses of 1 mg/kg when administered IV in a 2 mL/kg dosing volume.
The pharmacokinetic properties of the synthesized xanomeline prodrugs after intravenous administration in a rat model were assessed. The concentration of prodrug was measured in each rat at various sampling timepoints after intravenous administration of the synthesized xanomeline prodrugs to rats.
Dose formulations were made at equivalent concentrations of active compound (xanomeline) adjusted for molecular weight of the compounds. The synthesized xanomeline prodrugs were dosed at 1 mg/kg intravenous (IV) nominal dose. Nominal doses were used in PK parameter determinations.

Series [2] in a line: Rat PK: plasma prodrug concentration after intramuscular (IM) dosing of xanomeline prodrugs at 5 mg/kg (Example A-4). The class given is in vivo, male Sprague-Dawley (SD) rats. The following applies: male, Sprague-Dawley, IM 5 mg/kg of xanomeline, Mean. As to the method: as §1, §2, §3
Formulation for IM administration: All compounds were formulated as solutions or fine suspensions in saline at 12.5 mg API/mL. This provided doses of 5 mg/kg (equivalent of xanomeline) when given to a 250 g rat in a 100 μL dosing volume.
The pharmacokinetic properties of the synthesized xanomeline prodrugs after intramuscular administration in a rat model were assessed. The concentration of prodrug was measured in each rat at various sampling timepoints after intramuscular administration of the synthesized xanomeline prodrugs to rats.
Dose formulations were made at equivalent concentrations of active compound (xanomeline) adjusted for molecular weight of the compounds. The synthesized xanomeline prodrugs were dosed at 5 mg/kg intramuscular (IM) nominal dose. Nominal doses were used in PK parameter determinations.

[3] abbreviates: iv, 1 mg/kg, Mean, read-out: Prodrug Plasma Concentrations Following Intravenous Dosing.
[4] abbreviates: iv, 1 mg/kg, individual animals, read-out: Prodrug Plasma Concentrations Following Intravenous Dosing.

In the case of `CCCCCCOc1nsnc1C1=CCC[N+](C)(C(CC)OC(=O)C(C)(C)C)C1` (stereo not drawn) [Compound 352], the Tmax is 15 min in series [1] (analyte prodrug, individual animals) and 30 min in series [2] (analyte prodrug). Moreover, the concentration at 0.25 h in series [1] (iv, 1 mg/kg, 0.250 h, Mean, read-out: Prodrug Plasma Concentrations Following Intravenous Dosing) came out at 33.2 ng/mL. For the same compound, the concentration at 0.5 h in series [1] (setting [3]) amounted to 12.9 ng/mL; in series [1] (setting [4]) it was 10.3 ng/mL. Besides, the concentration at 0.75 h in series [1] (setting [3]) and in series [1] (setting [4]) was 6.01 ng/mL each time. In addition, the concentration at 1 h in series [1] (setting [3]) came out at 5.37 ng/mL; in series [1] (setting [4]), 5.58 ng/mL. Further, the Cmax in series [1] (iv, 1 mg/kg, analyte prodrug, Mean) was determined as 33.2 ng/mL. Also, the AUC(0-inf) in series [1] (iv, 1 mg/kg, analyte prodrug, Mean, read-out: Prodrug AUCINF_obs) turned out to be 44.4 ng·h/mL. Further, in series [1] (iv, 1 mg/kg, analyte prodrug, Mean, read-out: Prodrug AUClast), the AUC(0-t) was determined as 42.4 ng·h/mL. For the same compound, the concentration at 2 h in series [2] (intramuscular, 5 mg/kg, 2.00 h, read-out: Prodrug Plasma Concentrations Following Intramuscular Dosing) came to 71.3 ng/mL. The concentration at 4 h in series [2] (intramuscular, 5 mg/kg, 4.00 h, read-out: Prodrug Plasma Concentrations Following Intramuscular Dosing) worked out at 33.4 ng/mL. In addition, the concentration at 8 h in series [2] (intramuscular, 5 mg/kg, 8.00 h, read-out: Prodrug Plasma Concentrations Following Intramuscular Dosing) was 18.6 ng/mL.
